Laboratory results published in article PMC13220710 (Bioorganic & medicinal chemistry letters, 2025).
Read-outs that look alike come from different tables or passages of the source.

Experiments:
[1] = test system: PC3 prostate cancer cell line; assay: Anti-proliferative activity versus PC3 cells in MTS assay; format: cell-based
PC3 cells = conditions: cited from earlier work

SMILES | IC50 ([1]; Homo sapiens, PC-3, read-out: IC50, viability in prostate cancer cell line PC3) [µM] | IC50 ([1]; read-out: IC50, viability in prostate cancer cell line PC3, MTS assay, triplicate) [µM] | effect on PC3 cells (PC3 cells)
COc1cccc2c1C(=O)c1c(O)c3c(c(O)c1C2=O)C[C@@](O)(C(=O)CO)C[C@@H]3O[C@H]1C[C@H](N)[C@H](O)[C@H](C)O1 [Doxorubicin] | 2.8 ± 0.8 | – | –
CC1CCN(CC[C@H]2CCCN2S(=O)(=O)c2cccc(O)c2)CC1 [SB-269970] | – | 52.1 ± 6.5 | inhibited proliferation and induced apoptosis in PC3 cells
